Results on nine compounds are retold here after patent US9624166B2, “Tetracycline compounds” (Tetraphase Pharmaceuticals, Inc., priority 2009, dated 2017).

In assay [1] the test system is K. pneumoniae ATCC 13883 (KP109, wt). As to the kind of experiment: MIC assay, KP109. The class given is cell-based. Conditions: numeric MIC of control compounds. As to the method: (§1) Minimum Inhibitory Concentration (MIC) Assay
(§2) MICs were determined according to the Clinical and Laboratory Standards Institute (CLSI) guidances (e.g., CLSI. Performance standards for antimicrobial susceptibility testing; nineteenth information supplement. CLSI document M100-S19, CLSI, 940 West Valley Road, Suite 1400, Wayne, Pa. 19087-1898, USA, 2009). Briefly, frozen bacterial strains were thawed and subcultured onto Mueller Hinton Broth (MHB) or other appropriate media (Streptococcus requires blood and Haemophilus requires hemin and NAD). Following incubation overnight, the strains were subcultured onto Mueller Hinton Agar and again incubated overnight. […] Isolated colonies were selected to prepare a starting inoculum equivalent to a 0.5 McFarland standard. The starting inoculum was diluted 1:125 using MHB for further use. Test compounds were prepared by dilution in sterile water to a final concentration of 5.128 mg/mL. Antibiotics (stored frozen, thawed and used within 3 hours of thawing) and compounds were further diluted to the desired working concentrations.
(§3) The assays were run as follows. Fifty μL of MHB was added to wells 2-12 of a 96-well plate. One hundred μL of appropriately diluted antibiotics was added to well 1. Fifty μL of antibiotics was removed from well 1 and added to well 2 and the contents of well 2 mixed by pipetting up and down five times. Fifty μL of the mixture in well 2 was removed and added to well 3 and mixed as above. Serial dilutions were continued in the same manner through well 12. Fifty μL was removed from well 12 so that all contained 50 μL. Fifty μL of the working inoculum was then added to all test wells. A growth control well was prepared by adding 50 μL of working inoculum and 50 μL of MHB to an empty well. The plates were then incubated at 37° C. overnight, removed from the incubator and each well was read on a plate reading mirror. The lowest concentration (MIC) of test compound that inhibited the growth of the bacteria was recorded.
(§4) Fifteen bacterial strains, listed below, were examined in minimum inhibitory concentration (MIC) assays.

Assay [2] concerns E. coli ATCC 25922 (EC107, wt, control). As to the kind of experiment: MIC assay, EC107. Conditions: numeric MIC of control compounds. The class given is cell-based. Here is the method: as §1, §2, §3, §4
Assay [3] relates to P. aeruginosa ATCC 27853 (PA111, wt, control). The assay is described as follows: MIC assay, PA111. The format is cell-based. The conditions noted are these: numeric MIC of control compounds. As to the method:
as §1, §2, §3, §4

The subject of assay [4] is A. baumanii ATCC 19606 (AB110, wt). The assay is described as follows: MIC assay, AB110. The class given is cell-based. The conditions noted are these: numeric MIC of control compounds. Here is the method: as §1, §2, §3, §4
Assay [5] relates to E. cloacae ATCC 13047 (EC108, wt). As to the kind of experiment: MIC assay, EC108. The class given is cell-based. Conditions: numeric MIC of control compounds. As to the method:
as §1, §2, §3, §4

For assay [6], the system named is S. aureus ATCC 13709 (Smith). As to the kind of experiment: Murine systemic infection (septicemia) model with intraperitoneal challenge of S. aureus. The class given is in vivo. The conditions noted are these: CD-1 female mice, i.v. one hour post-challenge, SA Smith septicemia, survival after 48 hours, Probit analysis. As to the method:
Murine Systemic Infection Model with Intraperitoneal Challenge of S. aureus
In the model, CD-1 female mice (18-20 grams) were injected intraperitoneally with S. aureus ATCC 13709 (Smith) (1-2×10^6/mouse) mixed with 5% hog gastric mucin, a bacterial inoculum previously established through virulence studies required to achieve 90-100% lethality within 24-48 hours. Typically, six mice were treated intravenously per dose group one hour post-challenge with either compound 101, compound 105, compound 145, compound 153, compound 166, and compound 218, tetracycline or tigecycline at doses ranging from 0.05-10 mg/kg. After 48 hours, percent survival was calculated and the dose (mg/kg) effecting 50% survival, the protective dose 50% (PD50), was reported along as calculated by Probit analysis.
The PD50 values of compound 101, compound 105, compound 145, compound 153, compound 166, and compound 218 and comparators tigecycline and tetracycline in the S. aureus ATCC 13709 mouse septicemia model are described in Table 6.

For `CN(C)[C@@H]1C(O)=C(C(N)=O)C(=O)[C@@]2(O)C(O)=C3C(=O)c4c(O)cccc4C[C@H]3C[C@@H]12` [Sancycline], in assay [1], the MIC KP109 turned out to be 8 µg/mL. The MIC EC107 in assay [2] stood at 8 µg/mL. Besides, the MIC PA111 in assay [3] was above 32 µg/mL. Also, the MIC AB110 in assay [4] is 0.25 µg/mL. Also, the MIC EC108 in assay [5] is 8 µg/mL.

For the compound `CN(C)[C@@H]1C(O)=C(C(N)=O)C(=O)[C@@]2(O)C(O)=C3C(=O)c4c(O)cccc4[C@@](C)(O)[C@H]3C[C@@H]12` [Tetracycline, tetracycline], the “PD50 (protective dose 50%, dose effecting 50% survival)” value in assay [6] is recorded as 1.0 mg/kg.

As to `COc1cc(NS(=O)(=O)CC(C)C)c(O)c2c1C[C@H]1C[C@H]3[C@H](N(C)C)C(O)=C(C(N)=O)C(=O)[C@@]3(O)C(O)=C1C2=O` [Compound 166], in assay [6], the “PD50 (protective dose 50%, dose effecting 50% survival)” value is given as 4.3 mg/kg.

Regarding `CCN(C)CC(=O)Nc1cc(OC(F)(F)F)c2c(c1O)C(=O)C1=C(O)[C@]3(O)C(=O)C(C(N)=O)=C(O)[C@@H](N(C)C)[C@@H]3C[C@@H]1C2` [Compound 218], the “PD50 (protective dose 50%, dose effecting 50% survival)” value in assay [6] is recorded as 1.4 mg/kg.

For the compound `COc1cc(NC(=O)CN2CCCC2)c(O)c2c1C[C@H]1C[C@H]3[C@H](N(C)C)C(O)=C(C(N)=O)C(=O)[C@@]3(O)C(O)=C1C2=O` [Compound 101], the “PD50 (protective dose 50%, dose effecting 50% survival)” value in assay [6] stood at 0.36 mg/kg.

On to `CN(C)c1ccc(O)c2c1C[C@H]1C[C@H]3[C@H](N(C)C)C(O)=C(C(N)=O)C(=O)[C@@]3(O)C(O)=C1C2=O` [Minocycline], for which the MIC KP109 in assay [1] was determined as 1 µg/mL. For the same compound, in assay [2], the MIC EC107 was found to be 0.5 µg/mL. The MIC PA111 in assay [3] was determined as 16 µg/mL. Further, in assay [4], the MIC AB110 came out at 0.06 µg/mL. Besides, the MIC EC108 in assay [5] was found to be 2 µg/mL.

As for `CN(C)c1cc(NC(=O)CNC(C)(C)C)c(O)c2c1C[C@H]1C[C@H]3[C@H](N(C)C)C(O)=C(C(N)=O)C(=O)[C@@]3(O)C(O)=C1C2=O` [Tigecycline, tigecycline], the MIC KP109 in assay [1] came out at 0.125 µg/mL. In assay [6], the “PD50 (protective dose 50%, dose effecting 50% survival)” value is recorded as 0.97 mg/kg. Besides, the MIC EC107 in assay [2] was determined as 0.03 µg/mL. The MIC PA111 in assay [3] was 8 µg/mL. The MIC AB110 in assay [4] came out at 0.25 µg/mL. Moreover, the MIC EC108 in assay [5] worked out at 0.25 µg/mL.

Take `COc1cc(NS(=O)(=O)c2ccccc2)c(O)c2c1C[C@H]1C[C@H]3[C@H](N(C)C)C(O)=C(C(N)=O)C(=O)[C@@]3(O)C(O)=C1C2=O` [Compound 153]: the “PD50 (protective dose 50%, dose effecting 50% survival)” value in assay [6] is on record as above 10 mg/kg.

`COc1cc(NC(=O)CN(C)C)c(O)c2c1C[C@H]1C[C@H]3[C@H](N(C)C)C(O)=C(C(N)=O)C(=O)[C@@]3(O)C(O)=C1C2=O` [Compound 105]: the “PD50 (protective dose 50%, dose effecting 50% survival)” value in assay [6] is recorded as 0.25 mg/kg.
